How the values were obtained:
[1] = tested on: C57BL/6N male mice on high-fat diet; assay: Plasma lipids and apolipoprotein A-I in high-fat diet mice; format: in vivo; details: 0.1% 10-HOA in high-fat diet, 15 weeks
Experimental: (§1) The animal experiment was approved by the Animal Experiment Committee of Asahi Group Holdings, Ltd. (Mar. 9, 2017), and was conducted in accordance with the guidelines for the management and use of laboratory animals of the company's R&D center (implementation period: Apr. 3, 2017 to Jan. 10, 2018). Four-week-old C57BL/6N male mice (Japan SLC, Inc.) were purchased and used for the experiment. The mice were raised in the following environment: room temperature: 23±1.5° C., humidity: 55±15%, lighting time: 8:00 to 20:00.
(§2) High-fat diet containing 45 kcal % fat (Research Diets, Inc., D12451) was used to prepare feed with or without 0.1% 10-HOA. The four-week-old mice were acclimated to the high-fat diet for 2 weeks, then divided into two groups: (1) high-fat diet control group and (2) 0.1% 10-HOA-containing high-fat diet group, with 10 mice per group, and were administered the diet for 15 weeks. Feed and drinking water (tap water) were given freely by individual housing.
(§3) After fasting for 16 hours from the day before dissection, the amount of abdominal visceral fat, subcutaneous fat, and total fat (sum of the amount of visceral fat and subcutaneous fat) were measured by a CT scanner (Latheta LCT-100; Hitachi Aloka Medical, Ltd.), under anesthesia by isoflurane inhalation. Then, the abdomen was opened under anesthesia, and blood was collected from the abdominal vena cava. Visceral fat (perirenal fat, and retroperitoneal fat) and jejunal epithelial tissue were collected to measure the weight of adipose tissue. The above test was repeated three times, and an analysis was performed by a two-way analysis of variance (factor 1: test group, factor 2: number of animal experiments) (n=10×3/group).
The triglyceride concentration in the plasma was measured using a Triglyceride E test. The amount of cholesterol in the plasma was measured using a conventional method (G. Toshima et al., LipoSEARCH (registered trademark); Analytical GP-HPLC method for lipoprotein profiling and its applications, J. Biol. Macromol., 13 (2), 21-32 (2013)) at Skylight Biotech Inc,. Mouse Apolipoprotein A-I ELISAPRO kit (MABTECH) was used for the measurement of apolipoprotein A-I in the plasma. The jejunal epithelial tissue was collected by QIAzol Lysis Reagent (QIAGEN), and total RNA was extracted according to the product protocol of RNeasy Mini Kit (QIAGEN). Total RNA was reverse transcribed by M-MLV Reverse Transcriptase (Life Technologies Japan Ltd.) to prepare cDNA. To measure the mRNA expression level, real-time PCR by the intercalator method was performed using Light Cycler System (Roche Diagnostics K.K.). […] The mRNA expression level was expressed as a relative value to the control group.

[2] = tested on: C57BL/6N male mice on high-fat diet; assay: Fat accumulation in high-fat diet mice (CT scan and adipose tissue weight); format: in vivo; details: 15 weeks
Experimental: as §1, §2, §3

[3] = tested on: cholesterol transporter (NPC1L1); assay: Gene expression level of cholesterol transporter in jejunal epithelial tissue (real-time PCR); format: in vivo, mice; details: 0.1% 10-HOA in high-fat diet, 15 weeks, mRNA relative to control group, internal standard 36b4 (FIG. 8)
Experimental: as §1
High-fat diet containing 45 kcal % fat (Research Diets, Inc., D12451) was used to prepare feed with or without 0.1% 10-HOA. […]
After fasting for 16 hours from the day before dissection, the amount of abdominal visceral fat, subcutaneous fat, and total fat (sum of the amount of visceral fat and subcutaneous fat) were measured by a CT scanner (Latheta LCT-100; Hitachi Aloka Medical, Ltd.), under anesthesia by isoflurane inhalation. […]
The triglyceride concentration in the plasma was measured using a Triglyceride E test. The amount of cholesterol in the plasma was measured using a conventional method (G. Toshima et al., LipoSEARCH (registered trademark); Analytical GP-HPLC method for lipoprotein profiling and its applications, J. Biol. Macromol., 13 (2), 21-32 (2013)) at Skylight Biotech Inc,. […] The mRNA expression level was expressed as a relative value to the control group.

[4] = 0.1% 10-HOA in high-fat diet (45 kcal % fat), adipose tissue weight, n=10x3/group

SMILES: CCCCCCCCC(O)CCCCCCCCC(=O)O (stereo not shown) [10-HOA, 10-hydroxyoctadecanoic acid]
- triglyceride concentration in plasma ([1]; 16 h fasting, compared to control (FIG. 4)): decreasing tendency
- Apolipoprotein A-I in plasma ([1]; ELISA, compared to control (FIG. 6)): increasing tendency
- small HDL cholesterol in plasma ([1]; compared to control (FIG. 5)): significantly increased
- chylomicron cholesterol in plasma ([1]; compared to control (FIG. 7)): significant decrease
- Fat on the posterior abdominal wall [2, 4]: 0.6805 ± 0.0206 g
- Perirenal fat [2, 4]: 0.4924 ± 0.0130 g
- weights of perirenal fat and retroperitoneal fat ([2]; 0.1% 10-HOA in high-fat diet, compared to control (Table 1)): reduced
- amount of abdominal visceral fat ([2]; CT scanner, 0.1% 10-HOA in high-fat diet, compared to control group (FIG. 1)): significantly reduced
- total amount of fat ([2]; CT scanner, sum of visceral and subcutaneous fat, 0.1% 10-HOA in high-fat diet, compared to control (FIG. 3)): decreasing tendency
- gene expression level of the cholesterol transporter (NPC1L1) in jejunal epithelial tissue [3]: decrease

Reference: patent US20210369662A1, “FAT ACCUMULATION INHIBITOR AND BLOOD LIPID LEVEL IMPROVING AGENT” (ASAHI GROUP HOLDINGS, LTD., priority 2018, published 2021)
